Test results published in US10758631B2, “Solid cyanine dyes” (LI-COR, Inc., priority 2017, dated 2020).

Experiment: Mouse urine: fluorescence of extracted urine after injection
Assay type: in vivo
Settings: mice, urine extracted with acetonitrile:methanol mix, imaged on Odyssey CLx imager
Text: The urine is extracted with an acetonitrile:methanol mix and imaged on an Odyssey CLx imager (LI-COR Biosciences).

CC1(C)C(/C=C/C=C/C=C/C=C2\N(CCCCS(=O)(=O)O)c3ccc4ccccc4c3C2(C)C)=[N+](CCCCS(=O)(=O)[O-])c2ccc3ccccc3c21 [ICG, indocyanine green]
fluorescent signal in urine: No fluorescent signal
